Holding throughout (assay type): cell-based
The subject of assay [1] is Wnt activity (Sp5-Luc reporter, Wnt-responsive promoter) in SW480 colon carcinoma cells. The assay can be described thus: Wnt activity screening assay: Sp5-Luc reporter gene assay in SW480 cells. Particulars: Homo sapiens; for inhibition at 10 µM: read-out: percent inhibition at 10 μM (given for EC50 of >10 μM); for EC50: overnight incubation, 10-point curve starting from 10 μM. In outline: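 First, hygromycin-selected SW480 Sp5-Luc reporter cells are seeded in medium with 1% fetal bovine serum and exposed overnight to compound (up to 10 μM, 0.1% DMSO). Next, luciferase signal is read by luminescence. Finally, EC50 is fitted, or percent inhibition at 10 μM is reported above 10 μM.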
For orientation: In a reporter assay the amount or activity of a reporter protein is the signal.

Assay [2] has as its system SW480 colon cancer cells. Kind of assay: Cell viability assay (CellTiter-Blue) in SW480 cells. The following applies: Homo sapiens, 96 h, four days; for inhibition at 10 µM: read-out: percent inhibition at 10 μM (given for EC50 of >10 μM); for EC50: CellTiter-Blue, 10 μM to 0.0045 μM. In outline: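 Approximately 2×10^3 SW480 cells per well are seeded with compound (8 points, threefold steps, top 10 μM) and incubated four days at 37 °C. CellTiter-Blue is then added for about 3 h and fluorescence read. Non-linear regression gives EC50; for values beyond 10 μM, percent inhibition at that concentration is listed.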
For orientation: The colour change of resazurin is a common sign of viable cells or microbes.

For assay [3], the system named is primary human fibroblasts derived from IPF patients (LL29 cells) treated with TGF-β1. The assay can be described thus: Inhibition of the fibrotic process: αSMA staining in TGF-β1-treated LL29 fibroblasts. Particulars: Fibroblast; for inhibition at 10 µM: LL29 fibroblasts treated with TGF-β1, Table 4, read-out: percent inhibition at 10 μM (given in parentheses for EC50 >10 μM); for EC50: 96 h, LL29 fibroblasts treated with TGF-β1 (20 ng/mL), 4 days, Table 4. In outline:
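IPF-derived LL29 fibroblasts in F12 with 1% FBS dosed with compound (11-point, 10 μM to 1.87 nM, 0.1% DMSO), then 20 ng/mL TGF-β1 after 1 h, and cultured 4 days at 37 °C. αSMA-positive cell fraction imaged after excluding SYTOX-positive cells, normalized to TGF-β1/DMSO wells; EC50 by non-linear regression, % inhibition at 10 μM if EC50 >10 μM.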

Each structure is given as a SMILES string.

On to `O=C(Nc1cncc(-c2ccc3[nH]nc(-c4nc5c(-c6ccc(F)cc6)cccc5[nH]4)c3n2)c1)C1CCC1` [Compound 49, N-(5-(3-(4-(4-Fluorophenyl)-1H-benzo[d]imidazol-2-yl)-1H-pyrazolo[4,3-b]pyridin-5-yl)pyridin-3-yl)cyclobutanecarboxamide], for which the inhibition (as a rule, how much of the control response was suppressed) at 10 µM was found to be 28.3% in assay [1], 12.9% in assay [2] and 0% in assay [3]. Also, the EC50 in assay [1], in assay [2] and in assay [3] was above 10 µM in each case.

As to `CN1CCN(c2cccc3[nH]c(-c4n[nH]c5ccc(-c6cncc(NC(=O)C(F)(F)F)c6)nc45)nc23)CC1` [Compound 1127, 2,2,2-Trifluoro-N-(5-(3-(4-(4-methylpiperazin-1-yl)-1H-benzo[d]imidazol-2-yl)-1H-pyrazolo[4,3-b]pyridin-5-yl)pyridin-3-yl)acetamide], the EC50 – broadly, the concentration giving half of the maximal effect – in assay [1] was 3.99 µM; in assay [2], 9.42 µM; in assay [3], 8.31 µM.

As for `c1ccc(CNCc2cncc(-c3ccc4[nH]nc(-c5nc6c(-c7cccnc7)cccc6[nH]5)c4n3)c2)cc1` [Compound 108, N-Benzyl-1-(5-(3-(4-(pyridin-3-yl)-1H-benzo[d]imidazol-2-yl)-1H-pyrazolo [4,3-b]pyridin-5-yl)pyridin-3-yl)methanamine], the EC50 in assay [1] is 2.3 µM; in assay [2] it was 3.18 µM; in assay [3], 2.54 µM.

With `CC(C)(C)CC(=O)Nc1cncc(-c2ccc3[nH]nc(-c4nc5c(-c6ccccc6F)cccc5[nH]4)c3n2)c1` [Compound 72, N-(5-(3-(4-(2-Fluorophenyl)-1H-benzo[d]imidazol-2-yl)-1H-pyrazolo[4,3-b]pyridin-5-yl)pyridin-3-yl)-3,3-dimethylbutanamide], the inhibition at 10 µM came to 11.6% in assay [1] and 2% in assay [2]. Further, the EC50 was above 10 µM in assay [1], above 10 µM in assay [2] and 2.18 µM in assay [3].

As for `Cc1ncc(-c2ccc3[nH]nc(-c4nc5c(-c6cc(F)cc(NCCN(C)C)c6)cccc5[nH]4)c3n2)n1C` [Compound 781, N^1-(3-(2-(5-(1,2-Dimethyl-1H-imidazol-5-yl)-1H-pyrazolo[4,3-b]pyridin-3-yl)-1H-benzo[d]imidazol-4-yl)-5-fluorophenyl)-N^2,N^2-dimethylethane-1,2-diamine], the EC50 came out at 0.48 µM in assay [1], 0.549 µM in assay [2] and 0.917 µM in assay [3].

Regarding `Fc1ccc(-c2cccc3[nH]c(-c4n[nH]c5ccc(-c6cncnc6)nc45)nc23)cc1` [Compound 55, 3-(4-(4-Fluorophenyl)-1H-benzo[d]imidazol-2-yl)-5-(pyrimidin-5-yl)-1H-pyrazolo[4,3-b]pyridine], the inhibition at 10 µM stood at 6.5% in assay [1] and 4.1% in assay [2]. For the same molecule, the EC50 is above 10 µM in assay [1], above 10 µM in assay [2] and 3.07 µM in assay [3].

Regarding `O=C(Cc1ccccc1)Nc1cncc(-c2ccc3[nH]nc(-c4nc5c(-c6ccncc6)cccc5[nH]4)c3n2)c1` [Compound 122, 2-Phenyl-N-(5-(3-(4-(pyridin-4-yl)-1H-benzo[d]imidazol-2-yl)-1H-pyrazolo [4,3-b]pyridin-5-yl)pyridin-3-yl)acetamide], in assay [1], the inhibition at 10 µM came to 44.4%. The EC50 in assay [1] was above 10 µM; in assay [2], 1.45 µM; in assay [3], 4.97 µM.

In the case of `Fc1cccc(-c2cccc3[nH]c(-c4n[nH]c5ccc(-c6cnccn6)nc45)nc23)c1` [Compound 520, 3-(4-(3-Fluorophenyl)-1H-benzo[d]imidazol-2-yl)-5-(pyrazin-2-yl)-1H-pyrazolo[4,3-b]pyridine], in assay [1], the inhibition at 10 µM is 26%. For the same molecule, the EC50 was above 10 µM in assay [1], 1.79 µM in assay [2] and 4.29 µM in assay [3].

On to `CC(C)C(=O)Nc1cncc(-c2ccc3[nH]nc(-c4nc5c(-c6cccnc6)cccc5[nH]4)c3n2)c1` [Compound 93, N-(5-(3-(4-(Pyridin-3-yl)-1H-benzo[d]imidazol-2-yl)-1H-pyrazolo[4,3-b]pyridin-5-yl)pyridin-3-yl)isobutyramide], for which the EC50 in assay [1] is 3.78 µM; in assay [2], above 10 µM; in assay [3], above 10 µM. The inhibition at 10 µM in assay [2] amounted to 29.9%; in assay [3], 0%.

In the case of `O=C(Nc1cncc(-c2ccc3[nH]nc(-c4nc5c(-c6ccsc6)cccc5[nH]4)c3n2)c1)c1ccccc1` [Compound 291, N-(5-(3-(4-(Thiophen-3-yl)-1H-benzo[d]imidazol-2-yl)-1H-pyrazolo[4,3-b]pyridin-5-yl)pyridin-3-yl)benzamide], the inhibition at 10 µM in assay [1] is 42.5%. The EC50 is above 10 µM in assay [1], 3.46 µM in assay [2] and 2.62 µM in assay [3].

For the origin of these results see US10392383B2, “3-(1H-benzo[d]imidazol-2-yl)-1H-pyrazolo[4,3-b]pyridines and therapeutic uses thereof” (Samumed, LLC, priority 2015, dated 2019).
